The target in test [1] is Ribosomal protein S6 kinase beta-2 (Homo sapiens) (UniProt Q9UBS0). Kind of test: Inhibition of human RPS6KB2 at 1.82 nM by HotSpot assay relative to control.
Test [2] concerns the target Casein kinase I isoform gamma-1 (Homo sapiens) (UniProt Q9HCP0). Description: Inhibition of human CK1g1 at 1.82 nM by HotSpot assay relative to control.
For test [3], the target named is Activated CDC42 kinase 1 (Homo sapiens) (UniProt Q07912). Description: Inhibition of human ACK1 at 1.82 nM by HotSpot assay relative to control.
Test [4] has as its target T1, Megakaryocyte-associated tyrosine-protein kinase (Homo sapiens) (UniProt P42679).
T1 sequence (whole entry): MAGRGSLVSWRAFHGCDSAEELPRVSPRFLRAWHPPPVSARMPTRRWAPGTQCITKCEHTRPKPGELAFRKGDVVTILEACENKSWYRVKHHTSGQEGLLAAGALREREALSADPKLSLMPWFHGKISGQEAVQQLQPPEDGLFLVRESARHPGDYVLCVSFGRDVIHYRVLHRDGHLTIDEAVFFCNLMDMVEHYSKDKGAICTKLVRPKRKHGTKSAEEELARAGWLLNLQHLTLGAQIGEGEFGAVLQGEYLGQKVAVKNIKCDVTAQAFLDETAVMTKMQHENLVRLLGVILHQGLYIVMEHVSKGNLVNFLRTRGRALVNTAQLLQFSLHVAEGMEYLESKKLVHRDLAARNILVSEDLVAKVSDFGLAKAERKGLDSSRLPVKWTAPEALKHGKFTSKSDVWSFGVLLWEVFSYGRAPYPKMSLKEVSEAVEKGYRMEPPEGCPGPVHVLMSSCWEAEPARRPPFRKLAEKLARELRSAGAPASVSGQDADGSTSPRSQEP
Kind of test: Inhibition of human CTK at 18.6 nM by HotSpot assay relative to control.

Test [5] addresses T2, Rhodopsin kinase GRK7 (Homo sapiens) (UniProt Q8WTQ7).
T2 sequence (whole entry): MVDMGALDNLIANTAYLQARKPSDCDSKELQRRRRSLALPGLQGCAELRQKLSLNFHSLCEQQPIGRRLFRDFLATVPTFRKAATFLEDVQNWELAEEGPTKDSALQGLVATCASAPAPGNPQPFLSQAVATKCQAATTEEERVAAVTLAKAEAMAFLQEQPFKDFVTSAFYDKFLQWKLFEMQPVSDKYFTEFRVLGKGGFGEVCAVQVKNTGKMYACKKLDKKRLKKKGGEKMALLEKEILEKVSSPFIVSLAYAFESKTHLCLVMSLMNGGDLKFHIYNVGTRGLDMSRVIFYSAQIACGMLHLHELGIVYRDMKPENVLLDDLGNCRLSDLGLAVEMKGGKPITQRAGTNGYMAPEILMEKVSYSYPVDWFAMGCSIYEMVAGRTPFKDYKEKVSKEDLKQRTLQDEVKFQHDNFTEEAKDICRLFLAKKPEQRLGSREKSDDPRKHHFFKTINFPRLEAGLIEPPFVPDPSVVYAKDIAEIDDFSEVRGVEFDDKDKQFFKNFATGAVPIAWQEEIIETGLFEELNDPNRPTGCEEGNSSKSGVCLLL
Kind of test: Inhibition of human GRK7 at 18.6 nM by HotSpot assay relative to control.

Test [6] addresses Casein kinase I isoform gamma-1 (Homo sapiens) (UniProt Q9HCP0). Description: Inhibition of human CK1g1 at 18.6 nM by HotSpot assay relative to control.
In test [7] the target is Ephrin type-A receptor 7 (Homo sapiens) (UniProt Q15375). Description: Inhibition of human EPHA7 at 18.6 nM by HotSpot assay relative to control.
Test [8] has as its target T3, Ephrin type-B receptor 2 (Homo sapiens) (UniProt P29323).
T3 sequence (whole entry): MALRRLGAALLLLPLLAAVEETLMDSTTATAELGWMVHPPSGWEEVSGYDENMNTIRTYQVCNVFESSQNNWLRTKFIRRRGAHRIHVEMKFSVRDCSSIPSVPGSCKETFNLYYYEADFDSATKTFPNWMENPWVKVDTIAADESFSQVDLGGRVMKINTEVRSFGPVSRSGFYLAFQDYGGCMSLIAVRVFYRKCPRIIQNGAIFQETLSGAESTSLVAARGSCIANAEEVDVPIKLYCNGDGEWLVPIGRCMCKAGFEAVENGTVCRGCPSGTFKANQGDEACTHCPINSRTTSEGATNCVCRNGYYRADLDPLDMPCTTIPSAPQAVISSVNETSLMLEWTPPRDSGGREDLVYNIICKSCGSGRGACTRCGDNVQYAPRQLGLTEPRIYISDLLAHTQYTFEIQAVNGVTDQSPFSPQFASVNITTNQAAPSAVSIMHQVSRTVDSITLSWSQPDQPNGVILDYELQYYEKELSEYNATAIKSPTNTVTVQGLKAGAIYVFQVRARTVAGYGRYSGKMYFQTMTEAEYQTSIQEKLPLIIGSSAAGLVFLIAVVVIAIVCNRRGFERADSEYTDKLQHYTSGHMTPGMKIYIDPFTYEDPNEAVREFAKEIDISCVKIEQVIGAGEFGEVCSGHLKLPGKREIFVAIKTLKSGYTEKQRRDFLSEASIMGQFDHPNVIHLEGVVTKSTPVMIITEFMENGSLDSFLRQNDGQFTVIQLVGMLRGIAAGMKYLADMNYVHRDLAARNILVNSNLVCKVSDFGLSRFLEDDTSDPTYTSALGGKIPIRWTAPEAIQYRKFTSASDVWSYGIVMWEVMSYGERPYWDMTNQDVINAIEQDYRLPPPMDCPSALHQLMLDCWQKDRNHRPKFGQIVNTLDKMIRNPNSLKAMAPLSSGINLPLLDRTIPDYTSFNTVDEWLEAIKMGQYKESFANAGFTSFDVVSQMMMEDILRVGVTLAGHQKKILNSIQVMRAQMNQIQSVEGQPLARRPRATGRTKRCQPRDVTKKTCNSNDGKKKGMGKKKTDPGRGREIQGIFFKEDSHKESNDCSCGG
Description: Inhibition of human EPHB2 at 18.6 nM by HotSpot assay relative to control.

The target in test [9] is Protein kinase C delta type (Homo sapiens) (UniProt Q05655). Kind of test: Inhibition of human PKCd at 18.6 nM by HotSpot assay relative to control.
Sequence of Protein kinase C delta type (Homo sapiens) (Q05655 whole entry, looked up): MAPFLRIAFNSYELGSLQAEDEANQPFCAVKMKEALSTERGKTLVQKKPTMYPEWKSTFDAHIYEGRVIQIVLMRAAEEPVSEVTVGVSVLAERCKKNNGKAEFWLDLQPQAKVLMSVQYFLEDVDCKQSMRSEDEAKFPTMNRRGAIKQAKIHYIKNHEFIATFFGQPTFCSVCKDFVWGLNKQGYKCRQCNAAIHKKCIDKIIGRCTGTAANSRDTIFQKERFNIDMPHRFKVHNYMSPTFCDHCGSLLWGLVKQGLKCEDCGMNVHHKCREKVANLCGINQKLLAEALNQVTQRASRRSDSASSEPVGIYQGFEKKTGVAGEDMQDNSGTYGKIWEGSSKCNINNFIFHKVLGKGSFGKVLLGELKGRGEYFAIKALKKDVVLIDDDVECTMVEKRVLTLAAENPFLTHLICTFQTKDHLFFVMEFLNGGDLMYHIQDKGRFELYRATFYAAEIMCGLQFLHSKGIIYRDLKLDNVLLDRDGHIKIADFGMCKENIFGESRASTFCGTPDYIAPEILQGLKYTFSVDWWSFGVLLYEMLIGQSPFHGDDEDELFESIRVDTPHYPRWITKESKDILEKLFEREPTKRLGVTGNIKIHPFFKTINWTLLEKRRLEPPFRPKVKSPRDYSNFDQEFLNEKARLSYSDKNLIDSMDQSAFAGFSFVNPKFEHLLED

Sequence of Casein kinase I isoform gamma-1 (Homo sapiens) (Q9HCP0 whole entry, looked up, canonical isoform): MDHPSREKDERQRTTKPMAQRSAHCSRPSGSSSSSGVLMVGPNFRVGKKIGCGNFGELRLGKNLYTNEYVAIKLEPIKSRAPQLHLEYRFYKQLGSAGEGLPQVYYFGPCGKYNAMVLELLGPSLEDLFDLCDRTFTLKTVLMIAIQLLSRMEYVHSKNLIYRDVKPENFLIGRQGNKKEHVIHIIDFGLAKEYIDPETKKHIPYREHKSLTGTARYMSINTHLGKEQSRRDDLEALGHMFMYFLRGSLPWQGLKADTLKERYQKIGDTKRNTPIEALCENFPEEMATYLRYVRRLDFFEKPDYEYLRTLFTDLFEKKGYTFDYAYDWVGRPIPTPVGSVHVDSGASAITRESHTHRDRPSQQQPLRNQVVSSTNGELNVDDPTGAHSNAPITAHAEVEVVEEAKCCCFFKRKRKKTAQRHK
Sequence of Ephrin type-A receptor 7 (Homo sapiens) (Q15375 28-998 limits assumed): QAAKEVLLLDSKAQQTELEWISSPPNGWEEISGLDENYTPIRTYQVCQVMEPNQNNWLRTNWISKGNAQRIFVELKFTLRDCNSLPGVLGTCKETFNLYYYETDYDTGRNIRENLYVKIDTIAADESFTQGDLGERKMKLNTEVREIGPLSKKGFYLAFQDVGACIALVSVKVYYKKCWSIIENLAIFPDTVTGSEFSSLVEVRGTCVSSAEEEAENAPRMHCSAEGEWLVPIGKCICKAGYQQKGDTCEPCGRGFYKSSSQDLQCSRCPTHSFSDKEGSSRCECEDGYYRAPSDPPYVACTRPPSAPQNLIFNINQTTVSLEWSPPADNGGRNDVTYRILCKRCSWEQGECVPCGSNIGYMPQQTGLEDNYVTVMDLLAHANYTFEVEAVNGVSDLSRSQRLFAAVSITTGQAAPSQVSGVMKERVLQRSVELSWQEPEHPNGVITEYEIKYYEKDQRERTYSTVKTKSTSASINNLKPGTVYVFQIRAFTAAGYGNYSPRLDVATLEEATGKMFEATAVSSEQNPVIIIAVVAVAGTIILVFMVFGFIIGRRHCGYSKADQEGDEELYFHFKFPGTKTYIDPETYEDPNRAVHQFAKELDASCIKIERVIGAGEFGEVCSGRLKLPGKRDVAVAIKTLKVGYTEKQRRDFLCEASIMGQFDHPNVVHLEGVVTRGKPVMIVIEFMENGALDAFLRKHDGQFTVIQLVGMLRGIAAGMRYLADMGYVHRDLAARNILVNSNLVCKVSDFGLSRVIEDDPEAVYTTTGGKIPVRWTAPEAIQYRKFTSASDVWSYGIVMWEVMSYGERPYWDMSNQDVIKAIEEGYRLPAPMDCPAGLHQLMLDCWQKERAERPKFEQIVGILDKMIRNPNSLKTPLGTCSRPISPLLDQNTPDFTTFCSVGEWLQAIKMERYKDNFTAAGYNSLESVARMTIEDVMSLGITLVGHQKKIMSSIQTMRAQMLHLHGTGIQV
Sequence of Activated CDC42 kinase 1 (Homo sapiens) (Q07912 whole entry, looked up): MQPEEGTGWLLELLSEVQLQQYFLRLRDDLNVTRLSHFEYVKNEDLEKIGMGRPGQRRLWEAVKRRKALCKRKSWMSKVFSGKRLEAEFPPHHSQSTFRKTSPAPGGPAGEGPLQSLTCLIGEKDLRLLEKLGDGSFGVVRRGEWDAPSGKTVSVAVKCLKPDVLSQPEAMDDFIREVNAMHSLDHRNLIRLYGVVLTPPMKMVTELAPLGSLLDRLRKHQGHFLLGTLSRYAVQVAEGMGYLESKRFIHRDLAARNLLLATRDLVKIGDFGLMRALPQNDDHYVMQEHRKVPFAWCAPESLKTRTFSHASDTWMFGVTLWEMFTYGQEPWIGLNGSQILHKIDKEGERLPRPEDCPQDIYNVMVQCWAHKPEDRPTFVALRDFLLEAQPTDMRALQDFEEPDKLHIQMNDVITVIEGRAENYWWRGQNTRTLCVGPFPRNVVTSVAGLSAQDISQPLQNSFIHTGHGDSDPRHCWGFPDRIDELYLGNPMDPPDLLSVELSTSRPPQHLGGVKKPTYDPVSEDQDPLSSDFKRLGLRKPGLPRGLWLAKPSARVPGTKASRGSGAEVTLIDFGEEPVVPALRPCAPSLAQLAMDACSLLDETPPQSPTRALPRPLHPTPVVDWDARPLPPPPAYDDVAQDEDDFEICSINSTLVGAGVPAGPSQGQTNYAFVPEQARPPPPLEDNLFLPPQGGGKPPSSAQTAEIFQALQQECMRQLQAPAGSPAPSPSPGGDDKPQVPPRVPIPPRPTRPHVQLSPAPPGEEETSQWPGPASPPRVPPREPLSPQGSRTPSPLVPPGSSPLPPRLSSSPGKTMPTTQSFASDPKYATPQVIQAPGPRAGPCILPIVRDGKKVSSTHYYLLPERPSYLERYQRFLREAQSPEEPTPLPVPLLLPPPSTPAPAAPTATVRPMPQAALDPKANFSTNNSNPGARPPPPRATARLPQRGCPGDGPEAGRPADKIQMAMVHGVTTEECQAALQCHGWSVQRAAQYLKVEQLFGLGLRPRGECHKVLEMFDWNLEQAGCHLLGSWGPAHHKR
Sequence of Ribosomal protein S6 kinase beta-2 (Homo sapiens) (Q9UBS0 whole entry, canonical isoform): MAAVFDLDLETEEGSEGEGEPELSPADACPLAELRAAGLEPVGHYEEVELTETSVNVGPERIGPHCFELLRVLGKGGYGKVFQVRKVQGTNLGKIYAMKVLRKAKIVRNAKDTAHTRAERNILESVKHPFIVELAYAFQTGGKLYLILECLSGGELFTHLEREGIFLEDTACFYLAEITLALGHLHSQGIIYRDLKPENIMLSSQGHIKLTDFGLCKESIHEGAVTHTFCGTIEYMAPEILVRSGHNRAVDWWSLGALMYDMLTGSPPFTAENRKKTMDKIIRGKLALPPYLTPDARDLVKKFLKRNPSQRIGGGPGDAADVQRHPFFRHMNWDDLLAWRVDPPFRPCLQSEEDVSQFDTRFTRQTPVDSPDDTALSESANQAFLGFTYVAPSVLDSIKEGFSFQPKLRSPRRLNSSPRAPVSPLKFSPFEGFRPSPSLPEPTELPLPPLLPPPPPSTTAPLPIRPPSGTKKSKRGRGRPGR

In the case of `C[C@@]1(C(=O)Nc2ccc(F)nc2)CCCN1c1nc(Nc2cc(C3CC3)n[nH]2)c2cccn2n1`, the inhibition in [1] is -0.77%; in [2], -3.54%; in [3], 3.55%.

Turning to `C[C@]1(O)C[C@@H](c2nc(-c3ccc4ccc(-c5ccccc5)nc4c3)c3c(N)nccn32)C1`, the inhibition in test [4] is -2.07%; in test [5], 0.1%; in [6] it was -0.6%; in test [7], 2.17%; in [8], -7.65%; in test [9] it was -2%.

A word on the inhibition: it is the drop in the measured response relative to a control, in per cent.

The values are drawn from ChEMBL document CHEMBL5653615 (J Biol Chem, 2013).
